Reference: PubChem BioAssay AID1963986 (Molecular Pharmacology Branch, DTP, NCI, 2024)

System: 171881-019-R-J1-PDC tumor spheroid viability
Assay: Anticancer human tumor 171881-019-R-J1-PDC patient-derived invasive breast carcinoma cell line growth inhibition [PI3K]
Conditions: spheroids with HUVEC and MSC; for IC50: curve of first compound; for viability, T/C: stronger effect = lower value
Outline: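 Multi-cell spheroids combine tumor cells with HUVEC and human MSCs, treated with targeted agents alone or with inavolisib, alpelisib, duvelisib or copanlisib. Concentrations fall in half-log steps from at or near clinical Cmax, or from 10 microM where Cmax is unknown; viability read-out.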

[1] = second compound 0.0316 µM, first compound 0.0316 µM
[2] = second compound 0.0316 µM, first compound 0.1 µM
[3] = second compound 0.0316 µM, first compound 0.316 µM
[4] = second compound 0.0316 µM, first compound 1 µM
[5] = second compound 0.0316 µM, first compound 3.16 µM
[6] = second compound 0.0316 µM, first compound 10 µM
[7] = second compound 0.1 µM, first compound 0.0316 µM
[8] = second compound 0.1 µM, first compound 0.1 µM
[9] = second compound 0.1 µM, first compound 0.316 µM
[10] = second compound 0.1 µM, first compound 1 µM
[11] = second compound 0.1 µM, first compound 3.16 µM
[12] = second compound 0.1 µM, first compound 10 µM
[13] = second compound 0.316 µM, first compound 0.0316 µM
[14] = second compound 0.316 µM, first compound 0.1 µM
[15] = second compound 0.316 µM, first compound 0.316 µM
[16] = second compound 0.316 µM, first compound 1 µM
[17] = second compound 0.316 µM, first compound 3.16 µM
[18] = second compound 0.316 µM, first compound 10 µM
[19] = second compound 1 µM, first compound 0.0316 µM
[20] = second compound 1 µM, first compound 0.1 µM
[21] = second compound 1 µM, first compound 0.316 µM
[22] = second compound 1 µM, first compound 1 µM
[23] = second compound 1 µM, first compound 3.16 µM
[24] = second compound 1 µM, first compound 10 µM
[25] = second compound 3.16 µM, first compound 0.0316 µM
[26] = second compound 3.16 µM, first compound 0.1 µM
[27] = second compound 3.16 µM, first compound 0.316 µM
[28] = second compound 3.16 µM, first compound 1 µM
[29] = second compound 3.16 µM, first compound 3.16 µM
[30] = second compound 3.16 µM, first compound 10 µM
[31] = second compound 10 µM, first compound 0.0316 µM
[32] = second compound 10 µM, first compound 0.1 µM
[33] = second compound 10 µM, first compound 0.316 µM
[34] = second compound 10 µM, first compound 1 µM
[35] = second compound 10 µM, first compound 3.16 µM
[36] = second compound 10 µM, first compound 10 µM
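Also: spheroids exposed to compound for 7 days before viability read.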
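For viability, T/C in this document: 100% = DMSO vehicle-treated spheroids.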

For `C#Cc1c(F)ccc2cc(O)cc(-c3ncc4c(N5CC6CCC(C5)N6)nc(OCC56CCCN5CC(F)C6)nc4c3F)c12` (centres undefined) + CC(Nc1ncnc2nc[nH]c12)c1cc2cccc(Cl)c2c(=O)n1-c1ccccc1, the IC50 (second compound 0.0316 µM) was 562 nM, the IC50 (second compound 0.1 µM) was 655 nM and the IC50 (second compound 0.316 µM) was 440 nM. It also gave an IC50 (second compound 1 µM) of 314 nM, an IC50 (second compound 3.16 µM) of 108 nM and an IC50 (second compound 10 µM) of under 31.6 nM. It also gave a viability, T/C [1] of 89.6%, a viability, T/C [2] of 78.5% and a viability, T/C [3] of 54%. For the same molecule, the viability, T/C [4] was 44.5%, the viability, T/C [5] was 35.7% and the viability, T/C [6] was 29.4%. For the same molecule, the viability, T/C [7] was 78.6%, the viability, T/C [8] was 80.1% and the viability, T/C [9] was 57%. The viability, T/C [10] was 43.9%, the viability, T/C [11] was 34.7% and the viability, T/C [12] was 24.3%. It also gave a viability, T/C [13] of 83.3%, a viability, T/C [14] of 71% and a viability, T/C [15] of 51.6%. It also gave a viability, T/C [16] of 41.8%, a viability, T/C [17] of 29.7% and a viability, T/C [18] of 23.2%. It also gave a viability, T/C [19] of 76%, a viability, T/C [20] of 68.8% and a viability, T/C [21] of 47.9%. It also gave a viability, T/C [22] of 34.3%, a viability, T/C [23] of 26.6% and a viability, T/C [24] of 19.7%. The viability, T/C [25] was 72.2%, the viability, T/C [26] was 50.1% and the viability, T/C [27] was 37.1%. For the same molecule, the viability, T/C [28] was 23.9%, the viability, T/C [29] was 18.2% and the viability, T/C [30] was 13.4%. It also gave a viability, T/C [31] of 49.8%, a viability, T/C [32] of 32.6% and a viability, T/C [33] of 21.5%. For the same molecule, the viability, T/C [34] was 16.9%, the viability, T/C [35] was 10.3% and the viability, T/C [36] was 6.78%.
Molecule `CC1(C)CCC(Nc2ncc(C(F)(F)F)c(-c3c[nH]c4c(P(C)(C)=O)c(C#N)ccc34)n2)CN1` (centres undefined) + CC(Nc1ncnc2nc[nH]c12)c1cc2cccc(Cl)c2c(=O)n1-c1ccccc1 has an IC50 (second compound 0.0316 µM) of 5910 nM, an IC50 (second compound 0.1 µM) of 5620 nM and an IC50 (second compound 0.316 µM) of 5580 nM. It also gave an IC50 (second compound 1 µM) of 5220 nM, an IC50 (second compound 3.16 µM) of 4430 nM and an IC50 (second compound 10 µM) of under 31.6 nM. It also gave a viability, T/C [1] of 68.3%, a viability, T/C [2] of 77.2% and a viability, T/C [3] of 71.8%. It also gave a viability, T/C [4] of 79.3%, a viability, T/C [5] of 84.1% and a viability, T/C [6] of 28.1%. It also gave a viability, T/C [7] of 65.5%, a viability, T/C [8] of 74.5% and a viability, T/C [9] of 73.1%. The viability, T/C [10] was 81.5%, the viability, T/C [11] was 88.8% and the viability, T/C [12] was 23.3%. It also gave a viability, T/C [13] of 65.5%, a viability, T/C [14] of 75.1% and a viability, T/C [15] of 74.1%. The viability, T/C [16] was 83.2%, the viability, T/C [17] was 81.9% and the viability, T/C [18] was 23.4%. It also gave a viability, T/C [19] of 69.1%, a viability, T/C [20] of 69% and a viability, T/C [21] of 73.8%. The viability, T/C [22] was 78.6%, the viability, T/C [23] was 73% and the viability, T/C [24] was 20.6%. For the same molecule, the viability, T/C [25] was 66%, the viability, T/C [26] was 65% and the viability, T/C [27] was 67.9%. It also gave a viability, T/C [28] of 71.4%, a viability, T/C [29] of 65.3% and a viability, T/C [30] of 12.7%. The viability, T/C [31] was 51%, the viability, T/C [32] was 47% and the viability, T/C [33] was 45.9%. It also gave a viability, T/C [34] of 48.5%, a viability, T/C [35] of 41.4% and a viability, T/C [36] of 3.63%.
